# Experimental data as given in US20260167638A1, “PHARMACEUTICAL COMPOUND, SALTS THEREOF, FORMULATIONS THEREOF, AND METHODS OF MAKING AND USING SAME” (Genentech, Inc., priority 2018, published 2026).
# Several values for one entry are separate records, joined by “and”; a condition that tells them apart may be missing. Equal entries are not always repeated. Where two headings read alike, the source gives them in different places.
# Columns and labels:
# [1] = Water sorption / dynamic vapor sorption (DVS) hygroscopicity; format: physicochemical
# Experimental: The pKa value of Compound I free base was calculated (ACD Labs pKa DB, v10.0) as 2.12±0.33. Therefore, Compound I free base was considered as a very weak base that could be protonated by strong acids. […] A sample of Compound I free base was analyzed by powder x-ray diffraction and found to be crystalline without any readily detectable amorphous content. […] (onset temperature).
# The maximum water uptake for the amorphous salt was about 40% whereas the maximum water uptake for the crystalline di-hydrochloride salt was higher, with about 54% uptake.
# The hygroscopic nature of the besylate salt was examined by dynamic vapor sorption analysis (DVS). […] Below 80% relative humidity not much water was adsorbed.
# [2] = Solubility in pure water at 25° C. with PXRD of solid residues; format: physicochemical
# Experimental: Using a similar strategy as described above, these salts were prepared by evaporation from a solution of free base and acid in a solvent (e.g., methanol-dichloromethane 1:1, ethyl acetate-dichloromethane 1:2, isopropanol, and the like). If necessary, an amorphous salt produced in this way was crystallized by stirring the amorphous material in an appropriate solvent (e.g., ethyl acetate, acetonitrile, and the like).
# [3] = Example 21 crossover pharmacokinetics of mono-tosylate and di-tosylate tablets in fasted dogs; format: in vivo, beagle dogs; parameters: Plasma concentration of Compound I at 0.25 hours: unit: ng/mL; settings: Example 21, fasted dogs, 200 mg tablet PO
# Experimental: Pharmacokinetics parameters of formulations of Compound I and its salts in dogs were determined by orally administering a test formulation tablet at 200 mg of active (Compound I or salt) per dog.
# Blood samples were taken at various times after administration, plasma prepared, and submitted to analysis for parent drug using a qualified LC-MS-MS assay. Pharmacokinetics parameters derived from the plasma analytical data were determined using non-compartmental analysis.
# Pharmacokinetics of Compound I were determined in pentagastrin-pretreated male beagle dogs following a single oral (PO) administration at 200 mg/tablet per dog in a 2-phase crossover designed study, with a washout period of at least 7 days in between each phase. Five male, non-naive, purebred beagle dogs were used in each phase of the 2-phase crossover study. All dogs were pretreated with pentagastrin (6 μg/kg intramuscular administrations) approximately 30 minutes before test article administration.
# Two tablet formulations (mono-tosylate and di-tosylate, as described above) of test article were assessed. Animals were fasted overnight prior to PO dosing through approximately 4 hours post-dose. The tablet was administered orally, followed by approximately 10 mL of reverse osmosis water. Phase 1 animals were given tablets containing Compound I mono-tosylate, and phase 2 animals were given tablets containing Compound I di-tosylate salt. Blood samples were collected pre-dose and at 0.25, 0.5. 1. 2, 4, 8, 24, 36, and 48 hours after the oral dose. Plasma was harvested, and the concentration of Compound I in each plasma sample was determined by an LC/MS/MS assay. The assay lower limit of quantitation was 20 ng/mL for Compound I. Mean Compound I concentrations measured in plasma were used to construct semi-logarithmic plasma concentration-time curves (FIG. 1). Pharmacokinetic analysis was performed using non-compartmental methods.
# [4] = individual subjects, LLOQ 20 ng/mL, mono-tosylate salt
# [5] = individual subjects, mono-tosylate salt
smiles,measurement,setting,value
"Cc1ccc(S(=O)(=O)O)cc1.Cn1cc(-c2cn(-c3ccc(OC(F)(F)F)cc3)c(=O)c3ncn(C)c23)cn1 [mono-tosylate, 1-methyl-7-(1-methyl-1H-pyrazol-4-yl)-5-(4-(trifluoromethoxy)phenyl)-1,5-dihydro-4H-imidazo[4,5-c]pyridin-4-one, mono-tosylate salt]",reversibility of water adsorption within the timeframe of observation,[1],essentially reversible
same,pH (24 hrs),"[2]; pH of solubility sample, pure water, 25° C., 24 hours",1.53
same,pH (1 hr),"[2]; pH of solubility sample, pure water, 25° C., one hour",1.47
same,S 24 hrs,"[2]; pure water, 25° C., 24 hours equilibration",1.24 mg/mL
same,S 1 hr,"[2]; pure water, 25° C., one hour",2.54 mg/mL
same,solubility at 24 h,"[2]; water, 25 °C, water, thermodynamic from solid, Table 5: free base and crystalline salt forms",1240 µg/mL
same,Plasma concentration of Compound I at 48 hours,"[3]; individual subjects, LLOQ 20 ng/mL",BLQ
same,Plasma concentration of Compound I at 0.25 hours,[3]; [4],179 and 452 and 100 and 74.0 and 161
same,Plasma concentration of Compound I at 0.5 hours,[3]; [4],1180 and 3040 and 1320 and 3170
same,Plasma concentration of Compound I at 4 hours,[3]; [4],3550 and 5080 and 7990 and 10200 and 1850
same,Plasma concentration of Compound I at 8 hours,[3]; [4],1140 and 3110 and 5060 and 5380 and 378
same,Plasma concentration of Compound I at 24 hours,[3]; [4],95.5 and 4080 and 252 and 1050 and 25.7
same,Plasma concentration of Compound I at 36 hours,[3]; [4],BLQ (3×) and 897 and 74.4
same,AUC0-last,[3]; [5],26900 ng·h/mL and 122000 ng·h/mL and 77900 ng·h/mL and 110000 ng·h/mL and 14000 ng·h/mL
same,AUC0-rt,[3]; [5],27400 ng·h/mL and 123000 ng·h/mL and 79400 ng·h/mL and 110000 ng·h/mL and 14100 ng·h/mL
same,Cmax,[3]; [5],3570 ng/mL and 5940 ng/mL and 9410 ng/mL and 10500 ng/mL and 2960 ng/mL
same,Plasma concentration of Compound I at 48 hours,"[3]; mean, LLOQ 20 ng/mL",BLQ
same,AUC(0-t),"[3]; male, beagle, dog, plasma, po, 200 mg, mean",70200 ng·h/mL
same,AUC,"[3]; male, beagle, dog, plasma, po, 200 mg, mean, read-out: AUC0-rt",70900 ng·h/mL
same,Cmax,"[3]; male, beagle, dog, plasma, po, 200 mg, mean, read-out: Cmax",6480 ng/mL
same,concentration at 0.25 h,"[3]; male, beagle, dog, plasma, po, 200 mg/tablet per dog, mean, LLOQ 20 ng/mL, read-out: Plasma concentration of Compound I at 0.25 hours",193 ng/mL
same,concentration at 0.5 h,"[3]; male, beagle, dog, plasma, po, 200 mg/tablet per dog, mean, LLOQ 20 ng/mL, read-out: Plasma concentration of Compound I at 0.5 hours",1910 ng/mL
same,concentration at 1 h,"[3]; male, beagle, dog, plasma, po, 200 mg/tablet per dog, mean, LLOQ 20 ng/mL, read-out: Plasma concentration of Compound I at 1 hour",4690 ng/mL
same,concentration at 2 h,"[3]; male, beagle, dog, plasma, po, 200 mg/tablet per dog, mean, LLOQ 20 ng/mL, read-out: Plasma concentration of Compound I at 2 hours",6480 ng/mL
same,concentration at 4 h,"[3]; male, beagle, dog, plasma, po, 200 mg/tablet per dog, mean, LLOQ 20 ng/mL, read-out: Plasma concentration of Compound I at 4 hours",5730 ng/mL
same,concentration at 8 h,"[3]; male, beagle, dog, plasma, po, 200 mg/tablet per dog, mean, LLOQ 20 ng/mL, read-out: Plasma concentration of Compound I at 8 hours",3010 ng/mL
same,concentration at 24 h,"[3]; male, beagle, dog, plasma, po, 200 mg/tablet per dog, mean, LLOQ 20 ng/mL, read-out: Plasma concentration of Compound I at 24 hours",1100 ng/mL
same,concentration at 36 h,"[3]; male, beagle, dog, plasma, po, 200 mg/tablet per dog, mean, LLOQ 20 ng/mL, read-out: Plasma concentration of Compound I at 36 hours",486 ng/mL
same,tmax,"[3]; male, beagle, dog, plasma, mean, read-out: tmax",2 h
